According to article PMC5929447 (Oncotarget, 2018):
Where “and” joins values, the source holds several entries; their conditions need not be identical. Equal entries are not always repeated. Where two headings read alike, the source gives them in different places.

Assays:
MCL-1 = MCL-1 (Homo sapiens, UniProt Q07820); assay: Fluorescence polarization (FP) with Fluorescein-PUMA, MCL-1; type: binding
[1] = system: caspase-3 activity in RS4;11 tumor xenografts; assay: Caspase-3 activity in RS4;11 tumor xenografts; type: in vivo; details: 16 h post dosing, SCID mice
Experimental: Body weights were recorded and tumors were measured with digital calipers twice to three times a week. Tumor volume was calculated using the formula: length × width^2/2. Percent changes in body weights was calculated as (BWcurrent - BWinitial)/(BWinitial) × 100. Data is presented as percent body weight change from the day of treatment initiation. When tumors reached approximately 200 mm^3 for efficacy studies or 300 mm^3 for pharmacodynamic studies, mice were randomized. […] Mice were treated via oral gavage at 10 ml/kg with the doses and schedules described in the figure. For pharmacodynamic studies, blood and tumors were removed 16 h post dosing and immediately snap-frozen. Total proteins were extracted from the tumors and caspase-3 activity was assessed in triplicate using CaspACE® Assay System (Promega). Platelet cell counts were determined 16 hours post dosing using Coulter AcT diff (Beckman).

[2] = system: Burkitt lymphoma cell lines; assay: CellTiter-Glo viability, Burkitt lymphoma cell line panel; type: cell-based; details: 72 h; all Burkitt lymphoma cell lines tested
Experimental: (§1) Cells were seeded into 96-well plates and treated at 8 points with 1:2 serial dilution of compounds. Cell viability was assessed and assayed for viability using CellTiter-Glo reagent (Promega) following the manufacturer's instructions. Plates were read using Tecan luminescence plate reader. Results were normalized to the viability of cells without compounds (control wells). The IC50 values were calculated using nonlinear regression algorithms in XCell software.

BCL-2/BAX complex = BCL-2/BAX complex (Homo sapiens, UniProt P10415); assay: Co-immunoprecipitation in BCL-2-overexpressing HeLa cells; type: cell-based; details: 2 h
Chain of BCL-2/BAX complex (P10415 whole entry, one chain of several): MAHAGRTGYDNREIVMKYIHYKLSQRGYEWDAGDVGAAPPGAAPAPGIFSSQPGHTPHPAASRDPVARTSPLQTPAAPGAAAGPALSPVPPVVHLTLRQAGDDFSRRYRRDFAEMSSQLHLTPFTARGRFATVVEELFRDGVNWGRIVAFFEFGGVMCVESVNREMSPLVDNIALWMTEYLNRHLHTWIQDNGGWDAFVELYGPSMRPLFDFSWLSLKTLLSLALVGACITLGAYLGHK

Toledo cells = assay: CellTiter-Glo viability, Toledo; type: cell-based; details: Homo sapiens, 72 h
Experimental: as §1

[3] = system: primary Chronic Lymphocytic Leukemia cells; assay: Apoptosis (annexin V/PI flow cytometry) in primary CLL cells; type: cell-based; details: Homo sapiens, CLL cell, 4 h
Experimental: Peripheral blood samples from CLL patients were obtained with informed patient consent and local ethical committee approval (UHL-09723). […] Interphase fluorescence in situ hybridization (FISH) was performed for detection of 17p13 deletion. Mantle cell lymphoma (MCL) primary cells were obtained after informed consent from MCL patients treated at the department of clinical hematology from the University Hospital of Nantes, France. Peripheral MCL cells from blood or pleural effusion, were purified after Ficoll-Hypaque separation with immuno-magnetic anti-CD19 beads (Miltenyi, Paris, France). Primary cells were cultured in RPMI-1640 supplemented with 10% FCS and 2 mM glutamine. Human platelets were isolated from citrate blood donated by healthy volunteers. Washed platelets were cultured in Hepes-buffered saline (HBS, 10 mM Hepes, 150 mM NaCl, 5 mM KCl, 1 mM MgSO4, pH 7.4). […] EC50 values were calculated using GraphPadPrism (non-linear fit, sigmoidal dose response, variable slope). […] Cell death was assessed in the CD19+ primary MCL cells by annexinV-FITC staining combined with an analysis of altered cellular morphology (lower FCS). Fluorescence was analyzed on FACSCalibur.

RS4;11 cells = assay: Apoptosis hallmarks in RS4;11 cells (annexin V/PI flow cytometry, MSD cleaved caspase-3 and PARP); type: cell-based
Experimental: Cells were incubated with 200 μl of binding buffer containing AnnexinV-FITC (Invitrogen) and propidium iodide (PI, Sigma) during 15 min at 20° C in the dark. THP-1 cells were incubated with 200 μl of binding buffer containing AnnexinV-APC (BD Biosciences) and DAPI (Sigma). 400 μl of binding buffer was added and samples were kept at 4° C before cytometric analysis. […] Fluorescence was collected at 520 (FITC), 630 nm (PI), 660 nm (APC) and 470 (DAPI). Numbers of apoptotic cells (addition of primary apoptosis, secondary apoptosis and necrosis) was normalized to the total numbers of cells per tubes. page 6: Cleaved PARP and cleaved caspase-3 Cleared lysates (5 μg) were assayed for immunodetection immunodetection by MesoScale Discovery of cleaved PARP and cleaved caspase-3 with MSD (MSD) assay Apoptosis Panel Whole Cell Lysate kit (MSD […]) in 96-well plates according to manufacturer 's instructions, 24 h after seeding, cells were treated with the and analyzed on the Sector Image 2400. Control DMSO indicated compounds for 4 h and harvested in lysis buffer conditions were set to 100% and fold-activation calculated. […] Cleaved caspase-3 (C) and cleaved PARP (D) was measured using MesoScale Discovery Apoptosis panel. […]

[4] = system: control RS4;11 cells (shRNA CT); assay: Viability of RS4;11 cells transduced with shRNA CT (control); type: cell-based; details: Homo sapiens, 72 h
platelets = assay: Platelet counts in RS4;11-bearing mice; type: in vivo; details: 25 and 100 mg/kg single oral dose, 16 h post dosing
Experimental: When tumors reached approximately 200 mm^3 for efficacy studies or 300 mm^3 for pharmacodynamic studies, mice were randomized. […] Mice were treated via oral gavage at 10 ml/kg with the doses and schedules described in the figure.
For pharmacodynamic studies, blood and tumors were removed 16 h post dosing and immediately snap-frozen. Total proteins were extracted from the tumors and caspase-3 activity was assessed in triplicate using CaspACE® Assay System (Promega). Platelet cell counts were determined 16 hours post dosing using Coulter AcT diff (Beckman).

BCL-XL/BAX complex = BCL-XL/BAX complex (Homo sapiens, UniProt Q07817); assay: Co-immunoprecipitation in BCL-XL-overexpressing HeLa cells; details: 2 h
Chain of BCL-XL/BAX complex (Q07817 whole entry, one chain of several): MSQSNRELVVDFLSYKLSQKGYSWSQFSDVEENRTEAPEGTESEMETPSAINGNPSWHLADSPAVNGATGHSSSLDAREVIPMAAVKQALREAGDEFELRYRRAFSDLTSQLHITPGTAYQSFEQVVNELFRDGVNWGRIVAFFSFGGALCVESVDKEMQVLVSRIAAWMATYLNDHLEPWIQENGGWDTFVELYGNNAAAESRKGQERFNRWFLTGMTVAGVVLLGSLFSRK
Experimental: Effecten reagent (Qiagen), with 3xFlag-tagged BCL-XL
24 h later, transfected Hela and RS4;11
were put under neomycin selection (800 µg/ml, Invitrogen) were then subjected to immunoprecipitation with anti-

Chain of MCL-1 (Q07820 whole entry): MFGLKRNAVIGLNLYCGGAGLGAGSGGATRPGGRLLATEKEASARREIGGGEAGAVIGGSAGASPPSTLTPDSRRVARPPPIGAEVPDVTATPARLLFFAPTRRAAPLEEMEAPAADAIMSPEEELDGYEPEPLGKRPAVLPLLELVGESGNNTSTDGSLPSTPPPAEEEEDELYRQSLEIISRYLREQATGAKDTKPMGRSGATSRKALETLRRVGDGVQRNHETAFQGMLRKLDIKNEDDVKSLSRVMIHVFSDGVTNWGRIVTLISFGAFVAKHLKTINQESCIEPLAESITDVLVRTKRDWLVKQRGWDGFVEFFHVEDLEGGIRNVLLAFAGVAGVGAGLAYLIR

- binding to MCL-1 (MCL-1; FP): No significant binding
- FP_MCL-1, % of inhibition at the maximal tested concentration (MCL-1; at 30E-06 M): 4.3% and 4.5%
- IC50 [2]: > 10000 nM
- effect on BCL-2/BAX complex in BCL-2-overexpressing HeLa cells (BCL-2/BAX complex): affects BCL-2/BAX complex
- EC50 ([3]; 7 patients, 4 hours of treatment, read-out: EC50 apoptosis in primary CLL cells, range over patients): 4.4 to 47.2 nM
- EC50 ([3]; read-out: EC50 S55746 primary CLL cells, patient CLL1, p17 del No, 4 h): 47.2 nM
- EC50 ([3]; read-out: EC50 S55746 primary CLL cells, patient CLL2, p17 del No, 4 h): 13.8 nM
- EC50 ([3]; read-out: EC50 S55746 primary CLL cells, patient CLL3, p17 del Yes, 4 h): 13.7 nM
- EC50 ([3]; read-out: EC50 S55746 primary CLL cells, patient CLL4, p17 del No, 4 h): 12 nM
- EC50 ([3]; read-out: EC50 S55746 primary CLL cells, patient CLL5, p17 del No, 4 h): 9.9 nM
- EC50 ([3]; read-out: EC50 S55746 primary CLL cells, patient CLL6, p17 del Yes, 4 h): 7.8 nM
- EC50 ([3]; read-out: EC50 S55746 primary CLL cells, patient CLL7, p17 del No, 4 h): 4.4 nM
- IC50 [4]: 57 nM
- platelet counts in vivo (platelets): did not induce platelet loss
Compound: O=C(c1cc(-c2cc3c(cc2C(=O)N2Cc4ccccc4C[C@H]2CN2CCOCC2)OCO3)n2c1CCCC2)N(c1ccccc1)c1ccc(O)cc1 [S55746]
- caspase-3 activity in tumor, times higher than in vehicle-treated animals ([1]; 25 mg/kg single oral gavage): about 11 times
- caspase-3 activity in tumor, times higher than in vehicle-treated animals ([1]; 100 mg/kg single oral gavage): ~28 times
- IC50 (Toledo cells): 401 nM
- apoptosis induction, externalization of phosphatidylserine (PS+ cells) (RS4;11 cells; 2 h): rapidly induced apoptosis in a concentration dependent-manner
- cleavage of caspase-3 and PARP (RS4;11 cells; MSD assay): observed upon treatment by S55746 in a concentration dependent manner
- effect on BCL-XL/BAX complex in BCL-XL-overexpressing HeLa cells (BCL-XL/BAX complex): without any significant effect on the BCL-XL/BAX complex
